# Results: article PMC6270921, “Study on the Cytotoxic Activity of Drimane Sesquiterpenes and Nordrimane Compounds against Cancer Cell Lines” (Molecules, 2014)
# Key:
# [1] = system: Salmonella strains TA 98, TA 2637, and TA 100; conditions: at highest non-toxic concentration; cited from earlier work
# [2] = system: DU-145 prostate cancer cell line; assay: Cell viability, sulforhodamine B assay; assay type: cell-based; conditions: Homo sapiens, 72 h exposure, dilutions 12.5 to 100 μM, read-out: Cytotoxicity IC50, DU145
# Protocol: (§1) The cytotoxicity of compounds 1–12 was evaluated in vitro against different cancer cell lines: MCF-7 breast cancer, DU-145 and PC-3 human prostate cancer, and one non-tumor cell line, human colon epithelial cells CCD 841 CoN (CoN). […] Four serial dilutions (from 12.5 to 100 μM) for each sample were evaluated in triplicate.
# (§2) The experimental cell cultures were obtained from the American Type Culture Collection (Rockville, MD, USA). MCF-7 cells (breast cancer cell line), PC-3 and DU-145 (prostate cancer cell lines), and human colon epithelial cells CCD 841 CoN (non-tumoral cell line) were grown in Dulbecco’s modified Eagle’s medium (DMEM) containing 10% FCS, 100 U/mL penicillin, 100 μg/mL streptomycin, and 1 mM glutamine. Cells were seeded into 96 well microtiter plates in 100 μL at a plating density of 5 × 10^3 cells/well. After 24 h incubation at 37 °C under a humidified 5% CO2 atmosphere to allow cell attachment, the cells were treated with different concentrations of drugs and incubated for 72 h under the same conditions. Stock solutions of compounds were prepared in ethanol and the final concentration of this solvent was kept constant at 1%. Control cultures received 1% ethanol alone.
# (§3) The sulforhodamine B assay was used according to the method of Skehan et al.. Briefly, the cells were set up at 3 × 10^3 cells per well of a 96 200 μL well, flat-bottomed, microplate. Cells were incubated at 37 °C in a humidified 5% CO2/95% air mixture and treated with the compounds at different concentrations for 72 h. At the end of drug exposure, cells were fixed with 50% trichloroacetic acid at 4 °C. After washing with water, cells were stained with 0.1% sulforhodamine B (Sigma-Aldrich, St. Louis, MO, USA), dissolved in 1% acetic acid (50 μL/well) for 30 min, and subsequently washed with 1% acetic acid to remove unbound stain. Protein-bound stain was solubilized with 100 μL of 10 mM unbuffered Tris base, and the cell density was determined using a […] plate reader (wavelength 540 nm). Values shown are the mean ± SD of three independent experiments in triplicate. The software used to calculate the IC50 values was GraphPad (GraphPad Software, San Diego, CA, USA).
# [3] = system: MCF-7 breast cancer cell line; assay: Cell viability, sulforhodamine B assay; assay type: cell-based; conditions: Homo sapiens, MCF7, 72 h exposure, dilutions 12.5 to 100 μM, read-out: Cytotoxicity IC50, MCF-7
# Protocol: as §1, §2, §3
# [4] = Cell viability, sulforhodamine B assay; assay type: cell-based; conditions: human, CCD 841 CoN colon epithelial cells (non-tumoral cell line), 72 h exposure, dilutions 12.5 to 100 μM, non-tumor cell line, read-out: Cytotoxicity IC50, CoN
# Protocol: as §1, §2, §3
# [5] = system: PC-3 prostate cancer cell line; assay: Cell viability, sulforhodamine B assay; assay type: cell-based; conditions: Homo sapiens, 72 h exposure, dilutions 12.5 to 100 μM, read-out: Cytotoxicity IC50, PC-3
# Protocol: as §1, §2, §3
# CoN cells = assay: Mitochondrial membrane permeability, rhodamine 123 flow cytometry; assay type: cell-based, human; conditions: positive control FCCP 10 μM
# Excerpt: (§4) Mitochondria play a crucial role in the apoptotic cascade by serving as a convergent center of apoptotic signals originating from both the extrinsic and intrinsic pathways. Changes induced in the mitochondrial membrane potential (MMP) have been reported previously to represent a determinant in the execution of cell death. As polygodial has been described as an inhibitor of mitochondrial ATPase and also as nonionic surfactant. This effect may be determinant in cell death, we has analyzed the effect of compounds 1, 8 and 12 on the mitochondrial membrane potential using flow cytometry with rhodamine 123 stain [24]. […] Similar differences were observed after treatments with compounds 1 and 8 at 100 μM.
# (§5) Rhodamine 123, a cationic, voltage-sensitive probe that reversibly accumulates in mitochondria, was used to detect changes in transmembrane mitochondrial membrane potentials. Cells were labelled with 1 μM rhodamine 123 at 37 °C in cell medium for 60 min before terminating the experiment. Cells were detached from the plate, after washing with ice cold PBS, and the samples were analyzed by flow cytometry. Data are expressed in percentage of cells with rhodamine 123 [24].
# MCF-7 cells = assay: as above; assay type: cell-based, human; conditions: MCF-7, positive control FCCP 10 μM
# Excerpt: as §4, §5
# PC-3 cells = assay: as above; assay type: cell-based, human; conditions: PC-3, positive control FCCP 10 μM
# Excerpt: as §4, §5
# [6] = system: panel of cancer cell lines; assay: Cytotoxicity against a panel of cancer cell lines (summary); assay type: cell-based; conditions: Homo sapiens; summary statement of the conclusions
# Protocol: as §1, §3
compound,measurement,setting,value
"CC1(C)CCC[C@]2(C)[C@H](C=O)C(C=O)=CC[C@@H]12 [Compound 2, isopolygodial]",mutagenic activity,[1],no mutagenic activity
same,IC50,[2],> 200 µM
same,IC50,[3],> 200 µM
same,IC50 at 72 h,[4],> 200 µM
same,IC50,[5],> 200 µM
"CC(=O)O[C@H]1C[C@H]2C(C)(C)CCC[C@]2(C)[C@@H]2O[C@]12C [Compound 11, (5S,7S,8R,9S,10S)-4,4,8β,10β-tetramethyldecahydronaphtho[8,9-α]oxiren-7-yl acetate]",IC50,[2],> 200 µM
same,IC50,[3],> 200 µM
same,IC50 at 72 h,[4],> 200 µM
same,IC50,[5],> 200 µM
"N#CC(C#N)=NNc1ccc(OC(F)(F)F)cc1 [FCCP, reference compound]",percentage of rhodamine 123 stained cells,CoN cells,6.8 ± 1.3 %
same,percentage of rhodamine 123 stained cells,MCF-7 cells,7.4 ± 0.4 %
same,percentage of rhodamine 123 stained cells,PC-3 cells,5.2 ± 0.4 %
"CC1(C)CCC[C@]2(C)[C@H](CO)C(CO)=CC[C@@H]12 [Compound 6, 9α-drimendiol]",IC50,[2],> 200 µM
same,IC50,[3],> 200 µM
same,IC50 at 72 h,[4],> 200 µM
same,IC50,[5],> 200 µM
CC(=O)O[C@H]1C[C@H]2C(C)(C)CCC[C@]2(C)C=C1C [Compound 10],IC50,[2],> 200 µM
same,IC50,[3],> 200 µM
same,IC50 at 72 h,[4],> 200 µM
same,IC50,[5],> 200 µM
CC1(C)CCC[C@]2(C)[C@H]3O[C@@]3(C)C(=O)C[C@@H]12 [Compound 9],IC50,[6],< 200 µM
same,IC50,[2],93.5 ± 6.7 µM
same,IC50,[3],> 200 µM
same,IC50 at 72 h,[4],> 200 µM
same,IC50,[5],97.5 ± 10.4 µM
